Measured values taken from US5942532A, “2-substituted phenyl-benzimidazole antibacterial agents” (Ortho Pharmaceutical Corporation, priority 1997, dated 1999).

Molecular target: T1, Kinase A and Spo0F (Bacillus subtilis, UniProt P16497)
T1 construct: made in house; host or cells: recombinant E. coli
T1 sequence (P16497 1-606): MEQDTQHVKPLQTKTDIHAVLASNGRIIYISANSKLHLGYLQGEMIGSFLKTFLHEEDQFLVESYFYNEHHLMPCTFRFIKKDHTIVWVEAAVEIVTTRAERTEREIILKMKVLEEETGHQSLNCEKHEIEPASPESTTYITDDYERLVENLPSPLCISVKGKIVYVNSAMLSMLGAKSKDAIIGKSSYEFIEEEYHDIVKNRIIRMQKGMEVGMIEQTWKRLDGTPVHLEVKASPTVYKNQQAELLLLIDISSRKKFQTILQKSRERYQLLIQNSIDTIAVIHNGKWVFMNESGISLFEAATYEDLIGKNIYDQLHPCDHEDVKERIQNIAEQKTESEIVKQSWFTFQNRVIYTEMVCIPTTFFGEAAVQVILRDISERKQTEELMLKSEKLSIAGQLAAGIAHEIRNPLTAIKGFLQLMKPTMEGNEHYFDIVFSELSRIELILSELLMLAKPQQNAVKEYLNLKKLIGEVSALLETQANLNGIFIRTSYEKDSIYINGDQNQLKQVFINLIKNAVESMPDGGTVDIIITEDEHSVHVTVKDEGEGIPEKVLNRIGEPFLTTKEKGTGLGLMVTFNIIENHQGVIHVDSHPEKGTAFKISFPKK
Assay: Autophosphorylation of Kinase A and Transphosphorylation of Spo0F Assay (HPK in vitro assay)
Format: biochemical
Conditions: Table 1, KinA/Spo0F phosphorylation, in µM
Protocol: Autophosphorylation of Kinase A and Transphosphorylation of Spo0F Assay
To study the effect of the compounds of the present invention on the signal transduction process in bacteria, the inhibiting effect of the compounds on the sporulation operon proteins Kinase A and Spo0F was examined. Specifically, the inhibition of autophosphorylation of Kinase A and the transphosphorylation of Spo0F was determined in the following assays. The Spo0F response regulator is the primary substrate for phosphorylation by the protein kinase, Kin A, involved in the sporulation process in bacteria. See D. Burbulys, K. A. Trach, J. A. Hoch, Cell, 64, 545-552 (1991). Spo0F and KinA were prepared from recombinant E. coli overexpressing the proteins (J. Cavanagh et al, Amino Acids, 6, 131-140 (1994) and references therein).
The following stock reagents were either prepared and used promptly or stored at the indicated temperature:
8×Salts: 2 M KCl (5 mL), 1 M MgCl2 (800 mL), 1 M CaCl2 (100 mL), 10 mg/mL phenylmethylsulfonyl fluoride (200 mL), 1 M dithioreitol (50 mL), 0.25 M Na2 EDTA (32 mL) and H2 O 3.82 mL (-20° C.)
5×Loading Dye: 0.5M TRIS-HCl, pH 6.8 (7.5 mL), 10% SDS (2 mL) 0.1% bromophenol blue (0.5 mL), 100% glycerol (3 mL) and 12.5 M 2-mercaptoethanol (0.3 mL)
1-1.3 mg/mL KinA: 15 mM TRIS-HCl, pH 8.0, 6 mM KCl; 4 mM 2-mercaptoethanol;40% glycerol (-20° C.)
1 mg/mL Spo0F: 17.5 mM TRIS-HCl, pH 8.0; 0.7 mM KCl; 0.7 mM MgCl2; 0.7 mM CaCl2; 5 mM 2-mercaptoethanol; 30% glycerol (-20° C.)
5% Stacking Gel: 40% 29:1 acrylamide:bis acrylamide (1.25 mL), 0.5 M TRIS-HCl, pH 6.8 (2.5 mL), 10% SDS (0.1 mL), D-H2 O (6.15 mL) 10% ammonium persulfate (100 mL) and TEMED (25 mL)
SDS Running Buffer: TRIS-BASE (3.02 g), glycine (14.4 g), SDS (1 g), D-H2 O (to 1 L)
The reaction mixture was prepared from 8×Salts (87 μL), 1M TRIS, pH 8 (118 μL), 50% glycerol (63 μL), Spo0F (14.1 μL) and KinA (7.0 μL). Microcentrifuge tubes were charged with the reaction mixture (18.5 μL) and a 1.0 mM solution of the test compound in 5% DMSO (18.5 μL), and incubated for 15 min on ice. 100 mM ATP solution (3.0 μl, containing 625 μCi [^32 P]ATP) was added, and the mixture left for 10 minutes at room temperature. The reaction was quenched with 5× loading dye (10 μL per tube) and the samples were loaded on a prepared 5% Stacking Gel, or stored on dry ice until ready for use. The prepared wells were filled with SDS Running Buffer, samples were loaded into the wells, and 80 volts were applied to the gel until the dye front reached the bottom of the stacking gel. The voltage was then increased to 250 volts until electrophoresis was complete. Radioactive bands in the gel corresponding to phosphorylated KinA and Spo0F were imaged and quantitated with a phosphoimager.
If either enzyme was inhibited (as evidenced by the absence of labelled protein in the developed gel), an IC50 was calculated by running the assay with a range of inhibitor concentrations from 1 to 500 μM. After electrophoresis of the reaction mixtures, percent inhibition was determined by measuring the concentration of radioactive phosphorus with a phosphoimager and calculating the values using a software program (BioRad Molecular Analyst).

Point of comparison: `N=C(N)c1ccc2nc(-c3cc(I)cc(I)c3O)[nH]c2c1` [Example 31], IC50 30.8. Against it:
- CC(C)(C)c1ccc(-c2nc3ccc(C(=N)N)cc3[nH]2)cc1 [Example 10] — higher, 70.6
- N=C(N)c1ccc2nc(-c3ccc(OCc4ccccc4)cc3)[nH]c2c1 [Example 15] — higher, 60.8
- N=C(N)c1ccc2nc(-c3ccc(C=Cc4ccccc4)cc3)[nH]c2c1 [Example 13] — lower, 21.5
- CC(C)(C)c1cc(-c2nc3ccc(C(=N)N)cc3[nH]2)cc(C(C)(C)C)c1 [Example 20] — lower, 19
- N=C(N)c1ccc2nc(-c3cc(-c4ccccc4)cc(-c4ccccc4)c3O)[nH]c2c1 [Example 39] — lower, 23
- COc1cc(OC)c(-c2nc3ccc(C(=N)N)cc3[nH]2)cc1Br [Example 28] — higher, 66
- N=C(N)c1ccc2nc(-c3cc([N+](=O)[O-])cc(Br)c3O)[nH]c2c1 [Example 40] — higher, 199
- N=C(N)c1ccc2nc(-c3ccc(N(c4ccccc4)c4ccccc4)cc3)[nH]c2c1 [Example 5] — lower, 17.4
- N=C(N)c1ccc2nc(-c3ccc(-c4ccccc4)cc3)[nH]c2c1 [Example 2] — higher, 86
- CCCCN(CCCC)c1ccc(-c2nc3ccc(C(=N)N)cc3[nH]2)cc1 [Example 14] — higher, 35.5
- N=C(N)c1ccc2nc(-c3cc(Cl)cc(Cl)c3)[nH]c2c1 [Example 19] — higher, 100

Same assay, conditions: Table 1, KinA/Spo0F phosphorylation, read-out: IC50

`COc1c(-c2nc3ccc(C(=N)N)cc3[nH]2)cc(C(C)(C)C)cc1C(C)(C)C` [Example 29] showed an IC50 of 76 µM.

Same assay, conditions: Table 2, KinA/Spo0F phosphorylation, in µM

Point of comparison: `Cn1c(-c2ccc(Oc3ccccc3)cc2)nc2ccc(C(=N)N)cc21` [Example 46], IC50 44. Against it:
- N=C(N)c1cc(N)c2[nH]c(-c3ccc(Oc4ccccc4)cc3)nc2c1 [Example 62] — lower, 19
- N=C(N)c1ccc2nc(-c3ccc(Oc4ccc(Cl)cc4[N+](=O)[O-])cc3)[nH]c2c1 [Example 49] — lower, 29.2
- COc1ccc(Oc2ccc(-c3nc4ccc(C(=N)N)cc4[nH]3)cc2)cc1 [Example 54] — lower, 17.7
- N=C(N)c1ccc2[nH]c(-c3ccc(Oc4ccc(Cl)cc4)cc3)nc2c1 [Example 59] — lower, 13.9

Same assay, conditions: Table 3, KinA/Spo0F phosphorylation, read-out: IC50

Point of comparison: `COc1ccc(Oc2cccc(-c3nc4cc(C(=N)N)ccc4[nH]3)c2)cc1` [Example 70], IC50 69.2 µM. Against it:
- N=C(N)c1ccc2[nH]c(-c3cccc(Oc4ccc(Cl)cc4)c3)nc2c1 [Example 69] — 2.5-fold lower, 28 µM
- N=C(N)c1ccc2[nH]c(-c3cccc(Oc4ccc(Cl)c(Cl)c4)c3)nc2c1 [Example 67] — 2.2-fold lower, 32 µM
- N=C(N)c1ccc2[nH]c(-c3cccc(Oc4cc(Cl)cc(Cl)c4)c3)nc2c1 [Example 66] — 2.2-fold lower, 32 µM
- N=C(N)c1ccc2[nH]c(-c3cccc(Oc4cccc(C(F)(F)F)c4)c3)nc2c1 [Example 64] — within 1.5-fold, 48 µM

Same assay, conditions: Table 4, KinA/Spo0F phosphorylation, read-out: IC50

Point of comparison: `CCn1c2ccccc2c2ccc(-c3nc4ccc(C(=N)N)cc4[nH]3)cc21` [Example 73], IC50 22.0 µM. Against it:
- CN1c2ccccc2C(C)(C)C12C=Cc1cc(-c3nc4ccc(C(=N)N)cc4[nH]3)ccc1O2 (centres unmarked) [Example 78] — 5.2-fold higher, 114 µM
- N=C(N)c1ccc2nc(-c3cc4c5c(c3O)CCCN5CCC4)[nH]c2c1 [Example 77] — within 1.5-fold, 18.5 µM
- N=C(N)c1ccc2nc(-c3ccc4c(c3)Cc3ccccc3-4)[nH]c2c1 [Example 72] — 2.9-fold higher, 64.3 µM
- N=C(N)c1ccc2nc(-c3ccc4oc5ccccc5c4c3)[nH]c2c1 [Example 71] — within 1.5-fold, 17.3 µM

Same assay, conditions: Table 5, KinA/Spo0F phosphorylation, in µM

Point of comparison: `N=C(N)Cn1c(-c2ccc(N(c3ccccc3)c3ccccc3)cc2)nc2ccc(C(=N)N)cc21` [Example 82], IC50 22. Against it:
- N=C(N)c1ccc(Oc2ccc(-c3nc4ccccc4[nH]3)cc2)cc1 [Example 79] — higher, 241

Same assay, conditions: Table 6, KinA/Spo0F phosphorylation, in µM

Point of comparison: `CC(C)(C)c1cc(-c2nc3ccc(CN)cc3[nH]2)c(O)c(C(C)(C)C)c1` [Example 91], IC50 4. Against it:
- CC(C)(C)c1cc(-c2nc3ccc(N)cc3[nH]2)c(O)c(C(C)(C)C)c1 [Example 90] — higher, 152
- c1ccc(Oc2ccc(-c3nc4ccc(C5=NCCN5)cc4[nH]3)cc2)cc1 [Example 83] — higher, 112.4
- c1ccc(Oc2ccc(-c3nc4ccc(-c5nc6ccccc6[nH]5)cc4[nH]3)cc2)cc1 [Example 84] — higher, 32.3
- CC(C)(C)c1cc(-c2nc3ccc(C4=NCCN4)cc3[nH]2)c(O)c(C(C)(C)C)c1 [Example 85] — the same, 4
